Counter-ions that a name gives are not always drawn.
Tests used:
DA Transporter (hDAT) = DA Transporter (hDAT) (Homo sapiens, UniProt Q01959); assay: Inhibition of [3H]-DA reuptake in HEK 293 cells stably expressing hDAT; settings: for inhibition at 10 µM: HEK293, read-out: DA Reuptake Inhibition; for DA Reuptake Inhibition: 10 μmol/L final concentration (b487 prints 0.1 mmol/L), HEK 293 hDAT cells, [3H]-DA
5-HT Transporter (hSERT) = 5-HT Transporter (hSERT) (Homo sapiens, UniProt P31645); assay: Inhibition of [3H]-5-HT reuptake in HEK 293 cells stably expressing hSERT; settings: for inhibition at 10 µM: HEK293, read-out: 5-HT Reuptake Inhibition; for 5-HT Reuptake Inhibition: 10 μmol/L final concentration (b487 prints 0.1 mmol/L), HEK 293 hSERT cells, [3H]-5-HT;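 as to all read-outs here: compound preincubated 10 min at 30 °C, then 10 min uptake, filter-bound radioactivity counted by scintillation, inhibition relative to total (blank) minus non-specific (positive control) uptake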
5-HT Transporter (hSERT), sequence (P31645 whole entry): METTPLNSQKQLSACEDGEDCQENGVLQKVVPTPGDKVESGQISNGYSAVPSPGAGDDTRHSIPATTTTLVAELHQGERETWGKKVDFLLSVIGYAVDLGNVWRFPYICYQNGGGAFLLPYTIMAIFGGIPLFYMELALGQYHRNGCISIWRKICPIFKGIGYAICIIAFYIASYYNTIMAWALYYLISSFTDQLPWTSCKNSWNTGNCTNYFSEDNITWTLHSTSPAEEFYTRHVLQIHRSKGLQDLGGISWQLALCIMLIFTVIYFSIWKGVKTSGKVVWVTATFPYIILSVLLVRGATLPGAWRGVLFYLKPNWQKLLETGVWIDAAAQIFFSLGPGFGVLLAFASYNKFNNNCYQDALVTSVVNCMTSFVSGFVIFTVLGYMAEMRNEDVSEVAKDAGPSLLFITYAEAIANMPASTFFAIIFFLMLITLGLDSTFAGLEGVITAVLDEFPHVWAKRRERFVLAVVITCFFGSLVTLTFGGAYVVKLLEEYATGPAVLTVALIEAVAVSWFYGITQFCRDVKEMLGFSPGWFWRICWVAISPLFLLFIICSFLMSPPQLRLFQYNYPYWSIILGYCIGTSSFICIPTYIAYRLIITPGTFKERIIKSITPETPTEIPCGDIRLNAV

male Kunming mice = assay: Mice forced swimming test; type: in vivo; settings: for effect in the forced swimming test (in words): 20 mg/kg; for IT (sec), immobility time: 20.0 mg/kg single intragastric administration, 1 h before test, last 4 min of 6 min, n=12
Protocol: Through intragastric administration, 10 mL·kg^−1 of each sample (physiological saline for the blank control group) is administrated. The mice are pre-screened for swimming one day before the actual test. The mouse is placed into water (25° C., 10 cm deep) in a glass tank (height 20 cm, diameter 14 cm) and forced to swim for 6 min. Those who stop swimming at around 70-160 s are chosen for the actual test which starts 24 h later. After 1 h of the administration, the forced swimming test is performed by placing the animal into the above-mentioned environment to swim for 6 min. The accumulative immobility time for the last 4 min is recorded. Data is statistically analyzed with t-test.

male ICR mice = assay: Mice tail suspension test; type: in vivo; settings: for IT (sec), immobility time: 20.0 mg/kg single intragastric administration, 1 h before test, 4 min observation, n=12; for Improvement (%): 20.0 mg/kg single oral administration, versus blank control IT; for effect on immobility time in the tail suspension test (in words): 20 mg/kg, efficacy similar to Venlafaxine
Protocol: Through intragastric administration, 10 mL·kg^−1 of each sample (physiological saline for the blank control group) is administrated. After 1 h of the treatment, the mouse is held with a medical tape at a position around 2 cm from the tip of its tail and hung upside-down in the suspension cage with its head 5 cm away from the bottom of the cage. The observation starts right after the mouse is suspended for 2 min and continues for 4 min. The time during which the mouse is immobile (no struggling or only tiny movements of its body/limbs) in this 4 min is accumulated (IT, immobility time). The percentage of the improvement is calculated according to the equation: Improvement %=[IT (blank control group)−IT (compound treatment group)]/IT (blank control group)×100%

NA Transporter (hNAT) = NA Transporter (hNAT) (Homo sapiens, UniProt P23975); assay: Inhibition of [3H]-NA reuptake in HEK 293 cells stably expressing hNAT; settings: for NA Reuptake Inhibition: 10 μmol/L final concentration (b487 prints 0.1 mmol/L), HEK 293 hNAT cells, [3H]-NA
NA Transporter (hNAT), sequence (P23975 whole entry): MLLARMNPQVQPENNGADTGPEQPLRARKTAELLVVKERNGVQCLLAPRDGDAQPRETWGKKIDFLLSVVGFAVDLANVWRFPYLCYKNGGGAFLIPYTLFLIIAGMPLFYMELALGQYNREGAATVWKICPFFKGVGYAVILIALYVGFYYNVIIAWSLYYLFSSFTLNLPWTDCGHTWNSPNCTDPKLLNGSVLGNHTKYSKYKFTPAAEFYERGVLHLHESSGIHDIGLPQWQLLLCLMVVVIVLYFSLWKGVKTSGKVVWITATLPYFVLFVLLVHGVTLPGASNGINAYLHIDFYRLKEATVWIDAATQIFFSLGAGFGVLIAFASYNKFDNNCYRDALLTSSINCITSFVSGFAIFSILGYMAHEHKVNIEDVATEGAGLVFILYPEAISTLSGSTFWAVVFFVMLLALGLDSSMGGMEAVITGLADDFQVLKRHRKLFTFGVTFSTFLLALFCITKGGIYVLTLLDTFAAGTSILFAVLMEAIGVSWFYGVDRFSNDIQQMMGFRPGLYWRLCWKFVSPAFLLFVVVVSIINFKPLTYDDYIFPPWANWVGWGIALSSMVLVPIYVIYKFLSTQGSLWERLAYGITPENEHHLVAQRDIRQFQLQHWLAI

DA Transporter (hDAT), sequence (Q01959 whole entry): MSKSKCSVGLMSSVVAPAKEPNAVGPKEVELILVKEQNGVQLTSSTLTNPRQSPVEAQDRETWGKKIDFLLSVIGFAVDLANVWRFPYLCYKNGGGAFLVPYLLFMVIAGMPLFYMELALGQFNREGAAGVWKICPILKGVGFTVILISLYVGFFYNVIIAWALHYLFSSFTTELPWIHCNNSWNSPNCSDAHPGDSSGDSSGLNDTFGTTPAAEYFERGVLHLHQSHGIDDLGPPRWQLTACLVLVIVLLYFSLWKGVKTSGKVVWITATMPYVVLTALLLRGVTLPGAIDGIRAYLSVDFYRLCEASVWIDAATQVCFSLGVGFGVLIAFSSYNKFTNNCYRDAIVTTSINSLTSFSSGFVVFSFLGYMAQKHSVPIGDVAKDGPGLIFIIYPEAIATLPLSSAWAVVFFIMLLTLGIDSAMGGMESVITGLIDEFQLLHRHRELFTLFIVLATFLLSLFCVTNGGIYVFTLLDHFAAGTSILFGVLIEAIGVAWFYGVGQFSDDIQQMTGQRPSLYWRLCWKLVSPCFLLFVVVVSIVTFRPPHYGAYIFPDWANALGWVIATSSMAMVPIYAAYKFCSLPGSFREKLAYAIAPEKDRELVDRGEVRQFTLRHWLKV

In the case of `CCCN(C)C1(c2csc3ccccc23)CCCNC1` (centres unmarked) (as salt: hydrochloride), the melting point is reported as 193.2 to 195 °C.
With `CCCN(C)C1(c2ccc3c(c2)OCO3)CCCNC1` (centres unmarked) (as salt: hydrochloride) the melting point was 189.3 to 192.4 °C.
With `CCCN(C)C1(c2ccc(OC)c(OC)c2)CCCNC1` (centres unmarked) (as salt: hydrochloride) the melting point was 195.2 to 197.8 °C.
`CN(C)CCC(c1ccc(Cl)c(Cl)c1)N1CCNCC1` (centres unmarked) (as salt: hydrochloride) [VI-3, N,N-dimethyl-3-(3,4-dichlorophenyl)-3-(piperazin-1-yl)-propylamine] showed a melting point of 257.3 to 258.9 °C.
`CN(C)CCCC1(c2ccc(Cl)c(Cl)c2)CCCNC1` (centres unmarked) (as salt: hydrochloride) [VI-7, N,N-dimethyl-3-(3,4-dichlorophenyl)-3-piperidyl-propylamine] showed a melting point of 169.1 to 171.8 °C.
`CN(C)CCC(c1csc2ccccc12)N1CCCC1` (centres unmarked) (as salt: hydrochloride) [VI-13, N,N-dimethyl-3-(benzothiophen-3-yl)-3-(pyrrolidin-1-yl)-propylamine] gave a melting point of 259.7 to 262.2 °C.
Work on `CN(CCC(c1csc2ccccc12)N1CCCC1)Cc1ccccc1` (centres unmarked) (as salt: hydrochloride) [VI-14, N-methyl-N-benzyl-3-(benzothiophen-3-yl)-3-(pyrrolidin-1-yl)-propylamine] yielded a melting point of 297 to 299.5 °C.
In the case of `CNCCC(c1csc2ccccc12)N1CCCC1` (centres unmarked) (as salt: hydrochloride) [VI-15, N-methyl-3-(benzothiophen-3-yl)-3-(pyrrolidin-1-yl)-propylamine], the melting point is reported as 189.3 to 192 °C.
Compound `CN(CCCC1(c2csc3ccccc23)CCCNC1)Cc1ccccc1` (centres unmarked) (as salt: hydrochloride) [VI-17, N-methyl-N-benzyl-3-(benzothiophen-3-yl)-3-piperidyl-propylamine] has a melting point of 312 to 313.5 °C.
Compound `CN(C)CCC(c1cc2ccccc2s1)N1CCCC1` (centres unmarked) (as salt: hydrochloride) [VI-19, N,N-dimethyl-3-(benzothiophen-2-yl)-3-(pyrrolidin-1-yl)-propylamine] has a melting point of 255 to 257.2 °C.
With `CN(CCC(c1cc2ccccc2s1)N1CCCC1)Cc1ccccc1` (centres unmarked) (as salt: hydrochloride) [VI-20, N-methyl-N-benzyl-3-(benzothiophen-2-yl)-3-(pyrrolidin-1-yl)-propylamine] the melting point was 287.5 to 289.2 °C.
In the case of `CNCCC(c1cc2ccccc2s1)N1CCCC1` (centres unmarked) (as salt: hydrochloride) [VI-21, N-methyl-3-(benzothiophen-2-yl)-3-(pyrrolidin-1-yl)-propylamine], the melting point is reported as 175 to 176.8 °C.
`CN(CCCC1(c2cc3ccccc3s2)CCCNC1)Cc1ccccc1` (centres unmarked) (as salt: hydrochloride) [VI-23, N-methyl-N-benzyl-3-(benzothiophen-2-yl)-3-piperidyl-propylamine] showed a melting point of 298.5 to 300 °C.
In the case of `CCCN(C)C1(c2cc3ccccc3s2)CCCNC1` (centres unmarked) (as salt: hydrochloride) [VI-24, N-methyl-3-(benzothiophen-2-yl)-3-piperidyl-propylamine], the melting point is reported as 185.3 to 187 °C.
`COc1ccc2cc(C(CCN(C)C)N3CCCC3)ccc2c1Cl` (centres unmarked) (as salt: hydrochloride) [VI-36, N,N-dimethyl-3-(5-chloro-6-methoxynaphthalen-2-yl)-3-(pyrrolidin-1-yl)-propylamine] gave a melting point of 215.2 to 216.9 °C.
Work on `COc1ccc(C(CCN(C)C)N2CCCC2)cc1` (centres unmarked) (as salt: hydrochloride) [VI-37, N,N-dimethyl-3-(4-methoxyphenyl)-3-(pyrrolidin-1-yl)-propylamine] yielded a melting point of 175.2 to 178.4 °C.
Compound `CN(C)CCCC(c1ccc(Cl)c(Cl)c1)N1CCNCC1` (centres unmarked) (as salt: hydrochloride) [VI-45, N,N-dimethyl-4-(3,4-dichlorophenyl)-4-(piperazin-1-yl)-butylamine] has a melting point of 245.6 to 248.2 °C.
`CN(C)CCCC(c1csc2ccccc12)N1CCNCC1` (centres unmarked) (as salt: hydrochloride) [VI-47, N,N-dimethyl-4-(benzothiophen-3-yl)-4-(piperazin-1-yl)-butylamine] showed a melting point of 249.6 to 252.2 °C.
In the case of `CN(CCCC1(c2ccc3c(c2)OCO3)CCCNC1)Cc1ccccc1` (centres unmarked) (as salt: hydrochloride) [VI-53, N-methyl-N-benzyl-3-(1,2-methylenedioxybenzen-4-yl)-3-piperidyl-propylamine], the melting point is reported as 285.6 to 288.9 °C.
`COc1ccc(C2(CCCN(C)Cc3ccccc3)CCCNC2)cc1OC` (centres unmarked) (as salt: hydrochloride) [VI-59, N-methyl-N-benzyl-3-(3,4-dimethoxyphenyl)-3-piperidyl-propylamine] gave a melting point of 256.6 to 258.9 °C.
Work on `Clc1ccc([C@]23CNC[C@H]2C3)cc1Cl` [DOV-21947, reference compound] yielded an inhibition at 10 µM (DA Transporter (hDAT)) of 100% and an inhibition at 10 µM (5-HT Transporter (hSERT)) of 100%.
With `CN(C)CCC(c1ccc(Cl)c(Cl)c1)N1CCOCC1` (centres unmarked) [VI-4, N,N-dimethyl-3-(3,4-dichlorophenyl)-3-morpholinyl-propylamine] the “effect in the forced swimming test (in words)” value (male Kunming mice) was “significant reduction in the immobility time”, the “IT (sec), immobility time” value (male Kunming mice) was 52.8 ± 32.0 s and the “DA Reuptake Inhibition” value (DA Transporter (hDAT)) was 89.9%. The “IT (sec), immobility time” value (male ICR mice) was 38.65 ± 16.32 s, the “Improvement (%)” value (male ICR mice) was 61.04% and the “effect on immobility time in the tail suspension test (in words)” value (shortened to “effect on immobility time”) (male ICR mice) was “significant reduction in the immobility time”. The “NA Reuptake Inhibition” value (NA Transporter (hNAT)) was 93.6%, the “inhibition effect towards the reuptake of 5-HT (in words)” value (5-HT Transporter (hSERT)) was “relatively strong inhibition effect” and the “5-HT Reuptake Inhibition” value (5-HT Transporter (hSERT)) was 101.9%.
For `Clc1ccc(C(CCN2CCOCC2)N2CCCC2)cc1Cl` (centres unmarked) [VI-6], the “effect in the forced swimming test (in words)” value (male Kunming mice) was “significant difference from that of the blank control”, the “IT (sec), immobility time” value (male Kunming mice) was 79.3 ± 53.1 s and the “DA Reuptake Inhibition” value (DA Transporter (hDAT)) was 106.4%. The “IT (sec), immobility time” value (male ICR mice) was 25.68 ± 14.25 s, the “Improvement (%)” value (male ICR mice) was 74.11% and the “effect on immobility time” value (male ICR mice) was “significant reduction in the immobility time”. For the same compound, the “NA Reuptake Inhibition” value (NA Transporter (hNAT)) was 101.4% and the “5-HT Reuptake Inhibition” value (5-HT Transporter (hSERT)) was 106.3%.
With `CN(C)CCC(c1csc2ccccc12)N1CCCC1` (centres unmarked) [VI-13, N,N-dimethyl-3-(benzothiophen-3-yl)-3-(pyrrolidin-1-yl)-propylamine] the “effect in the forced swimming test (in words)” value (male Kunming mice) was “significant reduction in the immobility time”, the “IT (sec), immobility time” value (male Kunming mice) was 44.9 ± 53.7 s and the inhibition at 10 µM (DA Transporter (hDAT)) was 96.9%. The “IT (sec), immobility time” value (male ICR mice) was 38.29 ± 23.76 s, the “Improvement (%)” value (male ICR mice) was 61.40% and the “effect on immobility time” value (male ICR mice) was “significant reduction in the immobility time”. It also gave an inhibition at 10 µM (NA Transporter (hNAT); HEK293, read-out: NA Reuptake Inhibition) of 98.8% and an inhibition at 10 µM (5-HT Transporter (hSERT)) of 96.6%.
In the case of `CN(C)CCC(c1cc2ccccc2s1)N1CCOCC1` (centres unmarked) [VI-25, N,N-dimethyl-3-(benzothiophen-2-yl)-3-morpholinyl-propylamine], the “DA Reuptake Inhibition” value (DA Transporter (hDAT)) is reported as 39.2%, the “NA Reuptake Inhibition” value (NA Transporter (hNAT)) is reported as 96.8% and the “5-HT Reuptake Inhibition” value (5-HT Transporter (hSERT)) is reported as 91.5%.
For `COc1ccc2cc(C(CCN(C)C)N3CCOCC3)ccc2c1Cl` (centres unmarked) [VI-34, N,N-dimethyl-3-(5-chloro-6-methoxynaphthalen-2-yl)-3-morpholinyl-propylamine], the “DA Reuptake Inhibition” value (DA Transporter (hDAT)) was 2.48%, the “NA Reuptake Inhibition” value (NA Transporter (hNAT)) was 49.5% and the “5-HT Reuptake Inhibition” value (5-HT Transporter (hSERT)) was 47.3%.
For `COc1ccc(C(CCN(C)C)N2CCOCC2)cc1` (centres unmarked) [VI-38, N,N-dimethyl-3-(4-methoxyphenyl)-3-morpholinyl-propylamine], the “DA Reuptake Inhibition” value (DA Transporter (hDAT)) was 23.0%, the “NA Reuptake Inhibition” value (NA Transporter (hNAT)) was 29.3% and the “5-HT Reuptake Inhibition” value (5-HT Transporter (hSERT)) was 25.9%.
For `CN(C)CCCC(c1ccc(Cl)c(Cl)c1)N1CCOCC1` (centres unmarked) [VI-44, N,N-dimethyl-4-(3,4-dichlorophenyl)-4-morpholinyl-butylamine], the “DA Reuptake Inhibition” value (DA Transporter (hDAT)) was 67.0%, the “NA Reuptake Inhibition” value (NA Transporter (hNAT)) was 54.6% and the “5-HT Reuptake Inhibition” value (5-HT Transporter (hSERT)) was 45.8%.
With `CN(C)CCC(c1ccc(F)cc1F)N1CCOCC1` (centres unmarked) [VI-48, N,N-dimethyl-3-(2,4-difluorophenyl)-3-morpholinyl-propylamine] the “DA Reuptake Inhibition” value (DA Transporter (hDAT)) was 45.6%, the “NA Reuptake Inhibition” value (NA Transporter (hNAT)) was 58.0% and the “5-HT Reuptake Inhibition” value (5-HT Transporter (hSERT)) was 65.0%.
With `COc1ccc(C(CCN(C)Cc2ccccc2)N2CCOCC2)cc1OC` (centres unmarked) [VI-56, N-methyl-N-benzyl-3-(3,4-dimethoxyphenyl)-3-morpholinyl-propylamine] the “DA Reuptake Inhibition” value (DA Transporter (hDAT)) was 59.2%, the “NA Reuptake Inhibition” value (NA Transporter (hNAT)) was 68.7% and the “5-HT Reuptake Inhibition” value (5-HT Transporter (hSERT)) was 78.0%.
In the case of `CN(C)CCC(c1cccs1)N1CCOCC1` (centres unmarked) [VI-61, N,N-dimethyl-3-(thien-2-yl)-3-morpholinyl-propylamine], the “DA Reuptake Inhibition” value (DA Transporter (hDAT)) is reported as 65.6%, the “NA Reuptake Inhibition” value (NA Transporter (hNAT)) is reported as 75.0% and the “5-HT Reuptake Inhibition” value (5-HT Transporter (hSERT)) is reported as 78.9%.

Source: US8962621B2 (Shanghai Institute of Pharmaceutical Industry, priority 2010, dated 2015)
